# In ChEMBL document CHEMBL3217453, “Aminomethyl substituted thieno[2,3-d]pyrimidines as adenosine A2A receptor antagonists” (Medchemcomm, 2011):
# Active and inactive are the calls of the source. The rule behind the calls is not given here.
# How the values were obtained:
# Adenosine receptor A2a = Adenosine receptor A2a (Homo sapiens, UniProt P29274); assay: Antagonist activity at human adenosine A2A receptor expressed in CHO-K1 cells preincubated for 15 mins before NECA addition measured after 5.5 to 6 hrs by beta-galactosidase reporter gene assay; type: functional, cell-based
# Sequence of Adenosine receptor A2a (P29274 whole entry): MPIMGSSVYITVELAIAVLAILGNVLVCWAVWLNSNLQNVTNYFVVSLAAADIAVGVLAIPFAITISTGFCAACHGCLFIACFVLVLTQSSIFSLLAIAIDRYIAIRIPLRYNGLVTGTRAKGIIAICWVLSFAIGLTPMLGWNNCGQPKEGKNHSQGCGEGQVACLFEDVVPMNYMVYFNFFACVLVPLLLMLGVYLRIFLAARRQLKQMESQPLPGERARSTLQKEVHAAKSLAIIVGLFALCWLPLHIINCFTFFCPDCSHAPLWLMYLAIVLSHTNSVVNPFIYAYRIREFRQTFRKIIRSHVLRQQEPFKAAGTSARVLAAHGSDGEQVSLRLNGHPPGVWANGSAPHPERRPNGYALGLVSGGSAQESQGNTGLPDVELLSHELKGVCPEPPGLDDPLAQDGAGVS
# Mus musculus [1] = assay: Reversal of haloperidol-induced catalepsy in balb/c mouse at 10 mg/kg, po compound administered 30 mins post challenge; type: functional
# Adenosine receptor A1 = biological target: T1, Adenosine receptor A1 (Homo sapiens, UniProt P30542); assay: Antagonist activity at human adenosine A1 receptor expressed in CHO-K1 cells preincubated for 15 mins before r-PIA addition measured after 5.5 to 6 hrs by beta-galactosidase reporter gene assay; type: cell-based
# T1 sequence (P30542 whole entry): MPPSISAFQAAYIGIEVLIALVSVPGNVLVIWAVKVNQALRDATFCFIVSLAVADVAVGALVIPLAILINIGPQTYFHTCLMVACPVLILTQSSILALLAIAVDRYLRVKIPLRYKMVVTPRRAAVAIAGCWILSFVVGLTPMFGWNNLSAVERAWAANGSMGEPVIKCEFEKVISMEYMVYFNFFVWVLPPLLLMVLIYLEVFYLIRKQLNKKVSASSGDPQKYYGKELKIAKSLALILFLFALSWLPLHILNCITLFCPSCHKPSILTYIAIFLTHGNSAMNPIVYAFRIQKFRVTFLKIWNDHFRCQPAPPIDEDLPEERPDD
# Mus musculus [2] = assay: Reversal of haloperidol-induced catalepsy in po dosed balb/c mouse compound administered 30 mins post challenge; type: functional; conditions: 0.5 h
Compound,Ki (Adenosine receptor A2a) [µM],Ki (Adenosine receptor A1) [µM],Activity (Mus musculus [1]),ED50 (Mus musculus [2]) [mg/kg]
Nc1nc(-c2ccco2)nc2sc(CNC3CCCCC3)cc12,0.17,,,
Nc1nc(-c2ccco2)nc2sc(CNC3CC3)cc12,,,inactive,
Nc1nc(-c2ccco2)nc2sc(CN3CCCC3)cc12,,,inactive,
Nc1nc(-c2ccco2)nc2sc(CN3CC=CC3)cc12,0.0072,0.29,,< 0.1
Nc1nc(-c2ccco2)nc2sc(CN3CC=CCC3)cc12,0.0065,0.15,,< 3
CN(C)C(=O)c1cccc(-c2nc(N)c3cc(CN4CCC(F)CC4)sc3n2)c1,2.25,> 10,,
CN(C)Cc1cc2c(N)nc(-c3ccco3)nc2s1,0.14,,,
Nc1nc(-c2ncco2)nc2sc(CN3CC=CC3)cc12,0.24,3.89,,
CS(=O)(=O)c1cccc(-c2nc(N)c3cc(CN4CCC(F)CC4)sc3n2)c1,> 10,> 10,,
Nc1nc(-c2ncco2)nc2sc(CN3CC=CCC3)cc12,0.24,2.96,,
C[C@@H]1CCC[C@H](C)N1Cc1cc2c(N)nc(-c3ccco3)nc2s1,0.0053,,,
Nc1nc(-c2cccc(C(F)(F)F)c2)nc2sc(CN3CCC(F)CC3)cc12,> 10,3.03,,
Nc1nc(-c2ccc(Cl)o2)nc2sc(CN3CCCC3)cc12,,,inactive,
Nc1nc(-c2ccccc2C(F)(F)F)nc2sc(CN3CCC(F)CC3)cc12,> 10,> 10,,
Nc1nc(-c2cccc([N+](=O)[O-])c2)nc2sc(CN3CCC(F)CC3)cc12,3.76,> 10,,
Cc1ccc(-c2nc(N)c3cc(CN4CCCC4)sc3n2)o1,,,inactive,
N#Cc1cccc(-c2nc(N)c3cc(CN4CCOCC4)sc3n2)c1,,,,< 1
Nc1nc(-c2ccc(C(F)F)o2)nc2sc(CN3CCOCC3)cc12,,,inactive,
N#Cc1ccc(-c2nc(N)c3cc(CN4CCC(F)CC4)sc3n2)cc1,0.39,,,
N#Cc1cccc(-c2nc(N)c3cc(CN4CCC(F)CC4)sc3n2)c1,0.0544,,,< 1
Nc1nc(-c2cccc(C(F)(F)F)c2)nc2sc(CN3CC=CC3)cc12,,2.96,,
N#Cc1cccc(-c2nc(N)c3cc(CN4CCSCC4)sc3n2)c1,0.0509,0.98,,
N#Cc1ccc(-c2nc(N)c3cc(CN4CC=CCC4)sc3n2)cc1,0.18,,,
Nc1nc(-c2ccc(C(F)(F)F)cc2)nc2sc(CN3CCC(F)CC3)cc12,> 10,3.56,,
N#Cc1cccc(-c2nc(N)c3cc(CN4CCCC(F)(F)C4)sc3n2)c1,0.039,0.84,,< 1

# Further lines, with some results ahead:
Ki (Adenosine receptor A2a) [µM],Ki (Adenosine receptor A1) [µM],Compound,Activity (Mus musculus [1]),ED50 (Mus musculus [2]) [mg/kg]
0.0496,,Nc1nc(-c2ccco2)nc2sc(CN3CCC(F)(F)CC3)cc12,,
,> 1.1,Nc1nc(-c2ccc(C3CC3)o2)nc2sc(CN3CCOCC3)cc12,,
0.11,,Nc1nc(-c2cccc(F)c2)nc2sc(CN3CCOCC3)cc12,,
0.12,,Nc1nc(-c2cccc(Cl)c2)nc2sc(CN3CCOCC3)cc12,,
,0.0402,C[C@@H]1CCC[C@H](C)N1Cc1cc2c(N)nc(-c3ccc(Br)o3)nc2s1,,
0.0367,,Nc1nc(-c2ccc(Cl)o2)nc2sc(CN3CCC(F)CC3)cc12,,
0.0454,0.64,Nc1nc(-c2ccc(Cl)o2)nc2sc(CN3CCOCC3)cc12,,
0.01,,Nc1nc(-c2ccc(Cl)o2)nc2sc(CN3CC=CC3)cc12,inactive,
0.0432,,Nc1nc(-c2ccc(C(F)F)o2)nc2sc(CN3CCCC(F)(F)C3)cc12,,
0.25,,Nc1nc(-c2nccs2)nc2sc(CN3CCOCC3)cc12,,
0.0225,0.71,Nc1nc(-c2ccc(Br)o2)nc2sc(CN3CCCC3)cc12,inactive,
0.029,1.68,Nc1nc(-c2ccco2)nc2sc(CN3CCOCC3)cc12,,1.3
0.0159,0.245,Nc1nc(-c2ccc(Cl)o2)nc2sc(CN3CCC(F)(F)C3)cc12,,
0.0092,0.369,Nc1nc(-c2ccco2)nc2sc(CN3CCSCC3)cc12,,3.2
0.0288,,Cc1ccc(-c2nc(N)c3cc(CN4CCCCC4)sc3n2)o1,inactive,
> 1.36,> 0.6,CC(C)c1ccc(-c2nc(N)c3cc(CN4CCOCC4)sc3n2)o1,,
0.011,0.19,Nc1nc(-c2ccc(Cl)o2)nc2sc(CN3CC=CCC3)cc12,,

Ki (Adenosine receptor A2a) [µM],Ki (Adenosine receptor A1) [µM],Compound,Activity (Mus musculus [1]),ED50 (Mus musculus [2]) [mg/kg]
,> 0.61,CCc1ccc(-c2nc(N)c3cc(CN4CCOCC4)sc3n2)o1,,
,0.29,Nc1nc(-c2ccco2)nc2sc(CN3CCCC(F)(F)C3)cc12,,< 1
,> 0.93,Cc1csc(-c2nc(N)c3cc(CN4CCOCC4)sc3n2)n1,,
0.0286,,C[C@@H]1CCC[C@H](C)N1Cc1cc2c(N)nc(-c3ccc(C(F)F)o3)nc2s1,inactive,
0.03,0.725,Nc1nc(-c2ccc(Br)o2)nc2sc(CN3CCOCC3)cc12,,
> 10,,N#Cc1cccc(-c2nc(N)c3cc(CN4CCCC4)sc3n2)c1,,
0.995,> 5,Nc1nc(-c2ccccc2)nc2sc(CN3CCOCC3)cc12,,
0.0252,0.19,CCc1ccc(-c2nc(N)c3cc(CN4[C@H](C)CCC[C@@H]4C)sc3n2)o1,,
0.0197,,Nc1nc(-c2ccco2)nc2sc(CN3CCC(F)CC3)cc12,,< 1
0.0087,,Nc1nc(-c2ccco2)nc2sc(CN3CCC(F)(F)C3)cc12,,10
0.0276,1.17,Nc1nc(-c2ccco2)nc2sc(CN3CCCCCC3)cc12,,
0.017,0.14,CC(C)c1ccc(-c2nc(N)c3cc(CN4[C@H](C)CCC[C@@H]4C)sc3n2)o1,inactive,
0.11,,C[C@@H]1CCC[C@H](C)N1Cc1cc2c(N)nc(-c3ccc(C4CC4)o3)nc2s1,,
0.11,> 10,Nc1nc(-c2cccs2)nc2sc(CN3CCCC3)cc12,,
0.0091,0.188,Nc1nc(-c2ccc(Cl)o2)nc2sc(CN3CCCC(F)(F)C3)cc12,,
0.125,1.02,Nc1nc(-c2cccs2)nc2sc(CN3CCOCC3)cc12,,
0.0103,,Nc1nc(-c2ccco2)nc2sc(CN3CCC(F)C3)cc12 (stereo unspecified),inactive,
